Assay results: patent publication US6518410B2, “Sulfoquinovosylacylglycerol derivative, and use thereof as medicaments” (Toyo Suisan Kaisha, Ltd., priority 1999, dated 2003)

Tests used:
Colon cancer cells DLD-1 = experiment: Anticancer activity against cultured colon cancer cells (MTT assay); format: cell-based; details: Homo sapiens, DLD-1, 48 hours, mixture of S- and R-configurations, read-out: IC50, Anti-Cancer Activity against Colon Cancer Cells
Experimental: An assay on anticancer activity against cultured colon cancer cells was carried out in the following manner.
(§1) Colon cancer cells DLD-1 were maintained and subcultured in RPMI 1640 medium (containing 10% calf serum). Each of compounds SQAG 1, SQAG 2, SQAG 4, SQAG 6, SQAG 8, SQAG 11, SQAG 12, SQAG 13 and SQAG 14 shown in Table 1 was suspended and diluted in the medium, and then was cultivated in a 96-well plate together with the cancer cells at 3×10^3 cells/well. After the culture has been incubated for 48 hours, the MTT assay (Mosmann, T: Journal of immunological Method, 65, 55-63 (1983)) was carried out to compare viability rates.

[1] = system: gastric cancer cells NUGC-3; experiment: Anticancer activity against cultured gastric cancer cells (MTT assay); format: cell-based; details: Homo sapiens, NUGC-3, 48 hours, mixture of S- and R-configurations
Experimental: as §1
An assay on anticancer activity against cultured gastric cancer cells was carried out in the same manner as in the assay 4 except that gastric cancer cells NUGC-3 were used instead of the colon cancer cells DLD-1.

[2] = biological target: T1, DNA polymerase α isolated from the bovine thymus (Bos taurus, UniProt A0AAA9TD94); experiment: Inhibitory effect against DNA polymerase α; format: biochemical; details: 0.05 U enzyme, 37° C., 60 minutes; mixture of S- and R-configurations; read-out: IC50, Inhibition Activity against DNA Polymerase α (converted)
T1 construct: isolated from the bovine thymus and purified with an antibody column; from tissue; host or cells: bovine thymus
T1 sequence (A0AAA9TD94 1-1441): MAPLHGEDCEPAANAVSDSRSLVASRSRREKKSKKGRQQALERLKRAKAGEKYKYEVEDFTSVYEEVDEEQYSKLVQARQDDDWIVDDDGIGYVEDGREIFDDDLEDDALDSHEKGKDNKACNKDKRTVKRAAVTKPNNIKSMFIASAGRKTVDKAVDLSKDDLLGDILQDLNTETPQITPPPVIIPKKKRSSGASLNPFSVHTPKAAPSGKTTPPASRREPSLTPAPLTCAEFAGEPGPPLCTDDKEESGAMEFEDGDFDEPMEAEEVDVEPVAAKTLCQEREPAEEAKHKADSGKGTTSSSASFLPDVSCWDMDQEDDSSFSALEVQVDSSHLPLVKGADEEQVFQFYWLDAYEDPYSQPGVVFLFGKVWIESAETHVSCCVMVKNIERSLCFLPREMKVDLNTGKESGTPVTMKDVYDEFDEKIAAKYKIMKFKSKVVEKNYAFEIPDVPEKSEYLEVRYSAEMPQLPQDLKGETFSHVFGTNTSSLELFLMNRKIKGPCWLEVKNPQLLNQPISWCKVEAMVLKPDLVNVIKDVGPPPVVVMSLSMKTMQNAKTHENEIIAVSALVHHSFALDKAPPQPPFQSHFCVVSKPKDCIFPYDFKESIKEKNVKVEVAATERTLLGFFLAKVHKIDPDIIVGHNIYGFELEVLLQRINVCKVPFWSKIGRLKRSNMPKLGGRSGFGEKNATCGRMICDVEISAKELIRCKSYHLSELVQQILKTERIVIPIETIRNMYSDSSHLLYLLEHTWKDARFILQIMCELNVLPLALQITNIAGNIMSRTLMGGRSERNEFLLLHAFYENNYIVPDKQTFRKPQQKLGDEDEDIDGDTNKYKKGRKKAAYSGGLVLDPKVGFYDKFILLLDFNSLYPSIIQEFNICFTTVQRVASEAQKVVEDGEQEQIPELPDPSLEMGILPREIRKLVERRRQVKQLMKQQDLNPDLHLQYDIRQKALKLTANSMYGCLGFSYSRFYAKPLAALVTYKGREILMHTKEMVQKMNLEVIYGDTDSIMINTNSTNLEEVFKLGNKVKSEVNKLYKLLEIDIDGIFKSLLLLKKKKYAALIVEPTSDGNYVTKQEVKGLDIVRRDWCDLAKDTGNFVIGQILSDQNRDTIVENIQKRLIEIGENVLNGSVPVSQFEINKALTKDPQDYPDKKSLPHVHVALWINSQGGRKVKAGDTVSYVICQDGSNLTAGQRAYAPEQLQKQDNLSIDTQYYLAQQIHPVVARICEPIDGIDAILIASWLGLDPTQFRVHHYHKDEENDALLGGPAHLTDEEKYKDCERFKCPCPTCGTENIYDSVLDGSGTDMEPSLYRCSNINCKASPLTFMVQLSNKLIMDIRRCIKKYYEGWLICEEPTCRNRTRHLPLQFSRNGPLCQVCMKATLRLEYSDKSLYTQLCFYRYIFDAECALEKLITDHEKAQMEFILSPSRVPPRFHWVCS
Experimental: An assay on inhibitory effect against a DNA polymerase α was carried out in the following manner.
0.05 U of a DNA polymerase α isolated from the bovine thymus and purified with an antibody column was mixed with each of compounds SQAG 1 to SQAG 14 listed in Table 1 above, each of which was dissolved in DMSO. Each mixture was added with a buffer of an inorganic salt necessary for the enzymatic reaction, [^3H]-labeled dTTP, and a compound for reaction containing a template DNA chain, and was incubated at 37° C. for 60 minutes.
After the enzymatic reaction was stopped, the resultant product was fixed on a dedicated filter to make measurement by a liquid scintillation counter. The amount of enzymatically synthesized dTTP was calculated as a radiation dose (cpm) of [^3H].

[3] = system: LEW rat skin graft on ACI rats; experiment: Rejection test in skin graft; format: in vivo; details: 10 mL of 1 mg/mL intraperitoneally daily for five days, graft taken on the seventh day
Experimental: Rejection test in skin graft
ACI rats and LEW rats were prepared and subjected to inhalation anesthesia of ether. After shaving the dorsum of each ACI rat, posterior lateral skin (1×1 cm) was removed to form a skin-flayed wound, and then a hemostatic treatment was performed. On the other hand, a piece of skin (1×1 cm) was obtained from the tail of each LEW rat. The donor skin was applied to the skin-flayed wound of each ACI rat and sutured with 5-0 nylon sutures. Then, gauze was applied to the surgically operated portion and a corset with a rubber bandage was further attached thereon to protect it. Such a skin transplantation operation was applied to all ten ACI rats in the same manner. Of the ten ACT rats, five rats were selected at random and classified as a control group, and the remaining five rats were classified as a test group to which test substances are to be administered. To the control group, 10 mL of physiological saline was intraperitoneally injected daily for five days after the surgery. To the test group, 10 mL solution of SQAG 9 dissolved in physiological saline at a concentration of 1 mg/mL was intraperitoneally injected daily for five days after the surgery in the same manner as in the control group.
On the seventh day after the operation, a graft was taken to prepare a tissue specimen. […]

[4] = system: responder cells (T lymphocytes) with mitomycin C treated stimulator lymphocytes; experiment: Mixed lymphocytes reaction ([3H]-thymidine uptake of responder cells); format: cell-based, healthy persons; details: 4 days culture, then 12 hours [3H]-thymidine; FIGS. 1-4
Experimental: Mixed lymphocytes reaction
Lymphocytes serving as stimulator cells and responder cells were prepared from blood taken from individual healthy persons.
The responder cells were further separated from the lymphocyte cells to give T lymphocytes alone.
No treatment was applied to the responder cells. 10^6/mL of the stimulator cells were treated with 10 μg/mL of mitomycin C to stop the cell growth. Thereafter, the stimulator cells were washed with PBS (phosphate buffer saline) 4 times.
Subsequently, the responder cells were inoculated at a rate of 10^5 cells per well and then test substances (compounds SQAG 3, SQAG 5, SQAG 7, and SQAG 9 listed in Table 6 below) were added to a predetermined concentration. The reaction mixture was cultured at 37° C. for one hour. Thereafter, the stimulator cells were added at a rate of 10^5 cells per well. The mixture was cultured in a CO2 incubator at 37° C. for 4 days. After the incubation, the proliferation ability of the responder cells was quantified as follows. […] Then, the amount of [^3H]-thymidine uptake into the cells was determined by a scintillation counter.
FIGS. 1-4 show the amounts of [^3H]-thymidine uptake when SQAG 3, SQAG 5, SQAG 7, and SQAG 9 are added. […] In each of the FIGS. 1-4, the vertical axis indicates the intensity of radioactivity and the horizontal axis indicates the concentration of the test substance.

IC50 (Colon cancer cells DLD-1) [µg/mL]	IC50 [1] [µg/mL]	Compound	IC50 [2] [nM]	necrosis of the epidermal layer of the graft (histological observation) [3]	rats in which some parts of the epidermis adhered to the dermis (rejection suppressed) [3]	immunosuppressive activity (amount of [3H]-thymidine uptake) [4]
40	40	CCCCCCCCCCCCCC(=O)OCC(O)CO[C@H]1O[C@H](CS(=O)(=O)O)[C@@H](O)[C@H](O)[C@H]1O (mixture of isomers) [SQAG 2]	8510			
31	40	CCCCCCCCCCCCCCCC(=O)OCC(O)CO[C@H]1O[C@H](CS(=O)(=O)O)[C@@H](O)[C@H](O)[C@H]1O (mixture of isomers) [SQAG 4]	6290			
30	37.5	CCCCCCCCCCCCCCCCCC(=O)OCC(O)CO[C@H]1O[C@H](CS(=O)(=O)O)[C@@H](O)[C@H](O)[C@H]1O (mixture of isomers) [SQAG 6]	4100			
42	50	CCCCCCCCCCCCCCCC(=O)OCC(O)CO[C@@H]1O[C@H](CS(=O)(=O)O)[C@@H](O)[C@H](O)[C@H]1O (mixture of isomers) [SQAG 8]	7190			
28	24	CCCCCCCCCCCCCCCCCCCC(=O)OCC(O)CO[C@H]1O[C@H](CS(=O)(=O)O)[C@@H](O)[C@H](O)[C@H]1O (mixture of isomers) [SQAG 11]	1960			
20	23	CCCCCCCCCCCCCCCCCCCCCC(=O)OCC(O)CO[C@H]1O[C@H](CS(=O)(=O)O)[C@@H](O)[C@H](O)[C@H]1O (mixture of isomers) [SQAG 12]	1560			
20	20	CCCCCCCCCCCCCCCCCCCCCCCC(=O)OCC(O)CO[C@H]1O[C@H](CS(=O)(=O)O)[C@@H](O)[C@H](O)[C@H]1O (mixture of isomers) [SQAG 13]	1490			
18	20	CCCCCCCCCCCCCCCCCCCCCCCCCC(=O)OCC(O)CO[C@H]1O[C@H](CS(=O)(=O)O)[C@@H](O)[C@H](O)[C@H]1O (mixture of isomers) [SQAG 14]	1430			

The next lines start with the molecule.

Compound	IC50 (Colon cancer cells DLD-1) [µg/mL]	IC50 [1] [µg/mL]	IC50 [2] [nM]	necrosis of the epidermal layer of the graft (histological observation) [3]	rats in which some parts of the epidermis adhered to the dermis (rejection suppressed) [3]	immunosuppressive activity (amount of [3H]-thymidine uptake) [4]
CCCCCCCCCCCCCC(=O)OCC(CO[C@H]1O[C@H](CS(=O)(=O)O)[C@@H](O)[C@H](O)[C@H]1O)OC(=O)CCCCCCCCCCCCC (mixture of isomers) [SQAG 1]	38	32	1080			
CCCCCCCCCCCCCCCCCC(=O)OCC(CO[C@H]1O[C@H](CS(=O)(=O)O)[C@@H](O)[C@H](O)[C@H]1O)OC(=O)CCCCCCCCCCCCCCCCC (mixture of isomers) [SQAG 5]			352			
CCCCCCCCCCCCCCCC(=O)OCC(CO[C@@H]1O[C@H](CS(=O)(=O)O)[C@@H](O)[C@H](O)[C@H]1O)OC(=O)CCCCCCCCCCCCCCC (mixture of isomers) [SQAG 7]			377			
CCCCCCCCCCCCCCCCCC(=O)OCC(CO[C@@H]1O[C@H](CS(=O)(=O)O)[C@@H](O)[C@H](O)[C@H]1O)OC(=O)CCCCCCCCCCCCCCCCC (mixture of isomers) [SQAG 9]			352	three out of five rats	remaining two rats	considerably higher immunosuppressive activity than other compounds
CCCCCCCCCCCCCCCCCC(=O)OCC(O)CO[C@@H]1O[C@H](CS(=O)(=O)O)[C@@H](O)[C@H](O)[C@H]1O (mixture of isomers) [SQAG 10]			5130			
CCCCCCCCCCCCCCCC(=O)OCC(CO[C@H]1O[C@H](CS(=O)(=O)O)[C@@H](O)[C@H](O)[C@H]1O)OC(=O)CCCCCCCCCCCCCCC (some centres unmarked) [SQAG 3]			503			
